Test results reported in patent US9526717B2, “Composition for treating immune diseases containing daurinol compound as active ingredient” (THE CATHOLIC UNIVERSITY OF KOREA INDUSTRY-ACADEMIC …, priority 2013, dated 2016).

Legend:
[1] = tested on: animal model with graft versus host disease; assay: Therapeutic effect in animal model with graft versus host disease (GVHD); format: in vivo, mouse; details: GVHD Balb/c recipient mice, daurinol 20 mg/kg 3 times a week, total of 9 times, vs GVHD control group
Text: In order to confirm whether daurinol can be actually applied to the treatment of a different immune disease, the therapeutic effects of daurinol was examined using an animal model with graft versus host disease. First, for the construction of an animal with graft versus host disease, a recipient mouse, Balb/c(H-2k/d), was exposed to total body irradiation (TBI) (800 cGy). Then, hematopoietic stem cells and splenocytes were isolated from the femur and the tibia of the donor mouse and the hematopoietic stem cells (5×10^6 cells) and the splenocytes (1×10^6 cells) were transplanted to a recipient mouse Balb/c(H-2k/d). After the transplantation, daurinol (20 mg/kg of weight) was injected 3 times a week for a total of 9 times, and in particular, daurinol was used after dissolving in a mixed solvent (DMSO:Crernophor EL:DW=1:1:8). The experiment was performed and analyzed for the experimental groups in which each group consisted of five mice.

phospho m-TOR = assay: Western blot of phospho m-TOR in CD4+T cells; format: cell-based; details: CD4+T cells of normal mouse, daurinol 5 μM, anti-CD3 0.5 μg/mL, 3 days
Experimental: For the observation of changes in intracellular cell signaling factors treated with daurinol, a western blot analysis was performed. For this purpose, CD4+T cells were isolated from a normal mouse, treated with daurinol (5 μM) in a condition already treated with anti-CD3 antibodies (0.5 μg/mL), cultured for 3 days, and the cells were dissolved and proteins were extracted therefrom. Then, the extracted proteins were subjected to SDS-PAGE electrophoresis, and the proteins were electrically transferred onto a nitrocellulose membrane, subjected to a blocking reaction with 5% skim milk for 1 hour, reacted by attaching primary antibodies to STAT3, STAT3p705, STAT3p727, and phospho m-TOR thereto, reacting again by attaching secondary antibodies to the same, and sensitized onto a Kodak X-ray using enhanced chemilunimoecence (ECL), and thereby the protein expression levels of the genes were analyzed.

[2] = tested on: mouse model with collagen induced arthritis (CIA); assay: Measurement of IgG, IgG1 and IgG2a in the serum of CIA mice by sandwich ELISA; format: in vivo
CD4+ T cells [3] = assay: Inhibition of T cell proliferation in allogenic reaction in vitro; format: cell-based, mouse; details: daurinol 0.5, 2, 10 and 20 μM
Experimental: (§1) For the confirmation of the effect of the daurinol compound on the inhibition of T cell proliferation and the expression amount of IL-17, the CD4+ T cells (2×10^5 cells) of a normal recipient (Balb/c, responder), and the T cell-removed splenocytes (2×10^5 cells) derived from a recipient (homogenic) or the splenocytes (2×10^5 cells) derived from a donor (C57BL/6, stimulator, allogenic) exposed to irradiation were added to each well of a 96-well round bottom plate, mixed, and cultured in vitro. In particular, the T cell proliferation and the secretion of IL-17 when an allogenic reaction was untreated with daurinol or treated with daurinol at 0.5 μM, 2 μM, 10 μM, and 20 μM, respectively, were observed.

[4] = tested on: splenocytes of an animal model with lupus; assay: Th17/Treg activity by flow cytometry in splenocytes of animal model with lupus; format: cell-based; details: daurinol 1 μM, anti-CD3 0.5 μg/mL, three days
Experimental: Finally, for the confirmation of the controlling the activity of Th17/Treg cells, the splenocytes of an animal model with lupus were culture for three days after treating with daurinol (1 μM) and anti-CD3 (0.5 μg/mL), and the activity of Th17/Treg cells being controlled by daurinol was evaluated by flow cytometry.

[5] = tested on: animal model with a collagen induced arthritis (CIA); assay: Evaluation of arthritis index in animal model with collagen induced arthritis; format: in vivo, mouse; details: CIA DBA/1J mice, daurinol 20 mg/kg intravenously, total of 9 times, observed until 7th week
[6] = tested on: splenocytes of an animal model with obesity-derived rheumatoid arthritis; assay: IL-17 ELISA in splenocytes of animal model with obesity arthritis; format: cell-based; details: daurinol 1 μM and 5 μM, anti-CD3 0.5 μg/mL
Experimental: The splenocytes of an animal model with obesity-derived rheumatoid arthritis were treated with daurinol (1 μM and 5 μM) and anti-CD3 (0.5 μg/mL), and IL-17, the inflammatory cytokine expressed thereafter, was evaluated via ELISA assay.

VEGF = VEGF expression in the intestinal tissues of IBD mouse model; format: in vivo; details: animal (mouse) model with inflammatory bowel disease
Text: For the confirmation of the effect of the daurinol compound of the present invention on the treatment of inflammatory bowel disease, the present inventors first constructed an animal model with induced inflammatory bowel disease. For the experimental model, C57BL/6(H-2kb) mice were used. For the construction of an animal model with induced inflammatory bowel disease, the mice were fed with 3.5% dextran sulfate sodium (DSS) and water for a week, thereby preparing an animal model with induced inflammatory bowel disease.
The present inventors divided the experimental animals into a normal control group, a group of an animal model with induced inflammatory bowel disease, and a group of an animal model with induced inflammatory bowel disease treated with daurinol or a TNF-α inhibitor, and the group treated with daurinol was administered orally and intrarectally with daurinol (20 mg/kg) from the 4th day after the induction with the disease.

CD4+ T cells [7] = assay: IL-17 expression in allogenic reaction in vitro; format: cell-based, mouse; details: daurinol 0.5, 2, 10 and 20 μM
Experimental: as §1

splenocyte cell line = assay: IL-17 secretion of anti-CD3 treated splenocyte cell line (sandwich ELISA); format: cell-based; details: anti-CD3 antibodies 0.5 μg/mL
Experimental: For this purpose, a splenocyte cell line was treated with anti-CD3 antibodies (0.5 μg/mL) to induce the secretion of IL-17, or treated with LPS (100 ng/mL) to induce the secretion of TNF-α. […] The resultant was reacted in a 96-well plate with monoclonal anti-IL-17 or anti-TNF-α (2 μg/mL) at 4° C. overnight, and upon reaction, the non-specific binding was blocked using a blocking solution (1% BSA/PBST). IL-17 recombinant or TNF-α in a half amount was continuously diluted and used as standards, and the supernatant of cell culture was reacted at room temperature for 2 hours. Then, the biotinylated anti-IL-17 was reacted at room temperature for 2 hours, washed 4 times, and added with ExtraAvidin-alkaline phosphatase conjugate after dilution, and reacted at room temperature for 2 hours. Subsequently, PNPP/DEA solution was added thereto to fix color and absorbance was measured at 405 nm.

[8] = arthritis animals, daurinol administration

## COc1cc2c(-c3ccc4c(c3)OCO4)c3c(cc2cc1O)COC3=O [daurinol]
[1]
  degree of disease: improvement in the degree of disease
  degree of survival: maintenance of the degree of survival for 30 days
Phospho m-TOR
  expression of phospho m-TOR: significant decrease
[2]; CIA mouse, three weeks after daurinol injection, 20 mg/kg i.v.
  expression of IgG in the serum: effectively reduced
[2]; [8]
  IgG1 in the serum: significant decrease
  IgG2a in the serum: significant decrease
CD4+ T cells [3]
  T cell proliferation: inhibited T cell proliferation in a dose-dependent manner
[4]
  Th17 activity (flow cytometry): inhibit the Th17 activity
  activity of Foxp3+ Treg cells (flow cytometry): induce the activity of Foxp3+ Treg cells
[5]
  arthritis index: almost no increase in arthritis index
[6]
  expression of IL-17 (ELISA): inhibits the expression of IL-17 in a dose-dependent manner
VEGF
  VEGF expression in the intestinal tissues: significantly inhibited the VEGF expression
CD4+ T cells [7]
  expression of IL-17: inhibited the expression of IL-17
Splenocyte cell line; 2 μM daurinol
  secretion of IL-17 decreased to: 50%
Splenocyte cell line; 20 μM daurinol
  secretion of IL-17: no secretion was observed
